Experiments:
Test in all cases: relative viability (nuclei count vs DMSO), 5 days (fraction); higher = more cells survive
kb NB 142-70 + Lapatinib = compound: C1CSC2=C(C(=O)N1)SC3=C2C=C(C=C3)O [kb NB 142-70] + CS(=O)(=O)CCNCc1ccc(-c2ccc3ncnc(Nc4ccc(OCc5cccc(F)c5)c(Cl)c4)c3c2)o1 [Lapatinib] (partner 2 µM)
In short: (§1)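 Lung cancer cell lines in 1536-well plates were dosed by pin tool the day after seeding, either with one drug alone or with a fixed anchor-drug dose plus five library-drug doses (not always all listed) in √10 steps. After 5 days, cells were fixed and their nuclei stained in one step (final 0.05% Triton X-100, 1% formaldehyde, 1 ug/ml Hoechst), then counted on 4× images. Relative viability is the nuclei count in treated wells divided by that in vehicle wells. Values are medians of duplicate plates.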

kb NB 142-70 + OSI-027 = compound: C1CSC2=C(C(=O)N1)SC3=C2C=C(C=C3)O [kb NB 142-70] + COc1cccc2cc(-c3nc([C@H]4CC[C@H](C(=O)O)CC4)n4ncnc(N)c34)[nH]c12 [OSI-027] (partner 0.5 µM)
In short: as §1

[1] = compound: C1CSC2=C(C(=O)N1)SC3=C2C=C(C=C3)O [kb NB 142-70] + N=C(N)NC(=N)NCCc1ccccc1 [Phenformin] (partner 250 µM)
In short: as §1

[2] = compound: NCC(=O)Nc1ccc(-n2nc(C(F)(F)F)cc2-c2ccc3c(ccc4ccccc43)c2)cc1 + Cc1nc(NC(=O)N2CCC[C@H]2C(N)=O)sc1-c1ccnc(C(C)(C)C(F)(F)F)c1 [Alpelisib] (partner 2 µM)
In short: as §1

[3] = compound: NCC(=O)Nc1ccc(-n2nc(C(F)(F)F)cc2-c2ccc3c(ccc4ccccc43)c2)cc1 + CCNC(=O)c1noc(-c2cc(C(C)C)c(O)cc2O)c1-c1ccc(CN2CCOCC2)cc1 [Luminespib] (partner 0.01 µM)
In short: as §1

Cell Line	relative viability (kb NB 142-70 + Lapatinib; first compound 0.1 µM)	relative viability (kb NB 142-70 + Lapatinib; first compound 1 µM)	relative viability (kb NB 142-70 + Lapatinib; first compound 3.162 µM)	relative viability (kb NB 142-70 + OSI-027; first compound 0.1 µM)	relative viability (kb NB 142-70 + OSI-027; first compound 1 µM)	relative viability (kb NB 142-70 + OSI-027; first compound 3.162 µM)	relative viability ([1]; first compound 0.1 µM)	relative viability ([1]; first compound 1 µM)	relative viability ([1]; first compound 3.162 µM)	relative viability ([2]; first compound 0.02 µM)	relative viability ([2]; first compound 0.06325 µM)	relative viability ([2]; first compound 0.2 µM)	relative viability ([2]; first compound 0.6325 µM)	relative viability ([2]; first compound 2 µM)	relative viability ([3]; first compound 0.02 µM)	relative viability ([3]; first compound 0.06325 µM)	relative viability ([3]; first compound 0.2 µM)	relative viability ([3]; first compound 0.6325 µM)	relative viability ([3]; first compound 2 µM)
HCC-44	1.02	1.03	0.996	0.701	0.439	0.685	0.405	0.256	0.148	0.752	0.832	0.817	0.709	0.785	1.1	1.05	1.06	1.03	0.938
HCC-827	0.206	0.192	0.173	0.775	0.759	0.775	0.415	0.387	0.339	1.02	1.08	0.957	0.944	1.02	0.679	0.852	0.59	0.731	0.684
NCI-H1623				0.399	0.375	0.404	0.599	0.617	0.591						0.552	0.425	0.457	0.661	0.558
NCI-H2347	1.02	1.07	0.936	0.461	0.416	0.384	0.412	0.349	0.381	1.04	1.03	1.18	1.15	1.12	0.427	0.634	0.7	0.686	0.7
PC-14	0.362	0.304	0.341	0.754	0.962	0.609	0.658	0.56	0.619	1.04	0.952	1.02	0.889	1.04	0.146	0.154	0.19	0.218	0.182
NCI-H1651	0.902	0.789	0.471	0.725	0.657	0.471	0.327	0.321	0.205	0.927	0.964	0.969	0.847	0.941	0.8	0.965	0.872	0.81	0.861
HARA	0.943	0.634	0.661	0.57	0.479	0.234	0.486	0.473	0.344	0.859	0.958	0.844	0.831	0.867	0.773	1.03	0.735	0.484	0.818
NCI-H1650	0.874	0.88	0.69	0.612	0.755	0.483	0.457	0.525	0.324						0.202	0.229		0.166	0.199
NCI-H1395	1.23	1.14	0.816	0.674	0.757	0.638	0.45	0.484	0.434	1.04	1.1	1.3	1.13	1.05	0.615	0.78	0.678	0.655	0.617
LU99A	0.977	0.858	0.71	0.325	0.327	0.317	0.789	0.666	0.722	0.563	0.489	0.56	0.562	0.456	0.261	0.249	0.229	0.238	0.19
NCI-H1355	0.993	0.943	1.07	0.44	0.38	0.378	0.485	0.451	0.453	0.781	0.949	0.825	0.838	0.865	0.668	0.765	0.72	0.791	0.752
HCC-78	0.919	0.941	0.744	0.379	0.375	0.34	0.72	0.673	0.651	0.361	0.422	0.376	0.306	0.397					
NCI-H1563	0.969	0.889	0.944	0.773	0.739	0.752	0.656	0.688	0.624	0.969	0.837	0.962	0.928	1.05	0.557	0.523	0.588	0.526	0.554
HCC-15	0.854	0.932	0.743	0.698	0.703	0.516	0.476	0.491	0.518	0.879	0.9	0.889	0.956	0.865	0.332	0.306	0.302	0.365	0.335
EKVX	0.263	0.216	0.235	0.707	0.675	0.788	0.24	0.238	0.244	0.939	0.809	0.924	0.927	1.01	0.957	0.923	0.894	0.842	0.909
NCI-H2087	0.935	1.22	0.897	0.532	0.677	0.35	0.432	0.555	0.411	1.14	0.82	1.06	1.16	0.945	0.151	0.19	0.214	0.138	0.196
LK-2	0.802	0.734	0.536	0.19	0.163	0.163	0.5	0.403	0.318	1.04	1.04	0.979	1.14	0.969	0.173	0.195	0.217	0.173	0.208
NCI-H1437	0.728	0.78	0.85	0.908	0.968	0.921	0.308	0.292	0.262	0.944	0.995	0.999	0.913	0.918	1.11	0.991	1.13	1.12	1.05
COR-L23	0.972	1	0.586	0.797	0.728	0.279	0.416	0.426	0.258	0.895	0.822	0.898	0.722	0.745	0.599	0.652	0.772	0.57	0.757
ABC-1	0.946	1.22	1.07	0.481	0.506	0.346	0.223	0.24	0.166	0.955	0.88		1.06	1.14	0.478	0.813		0.372	0.748

Cell Line	relative viability (kb NB 142-70 + Lapatinib; first compound 0.1 µM)	relative viability (kb NB 142-70 + Lapatinib; first compound 1 µM)	relative viability (kb NB 142-70 + Lapatinib; first compound 3.162 µM)	relative viability (kb NB 142-70 + OSI-027; first compound 0.1 µM)	relative viability (kb NB 142-70 + OSI-027; first compound 1 µM)	relative viability (kb NB 142-70 + OSI-027; first compound 3.162 µM)	relative viability ([1]; first compound 0.1 µM)	relative viability ([1]; first compound 1 µM)	relative viability ([1]; first compound 3.162 µM)	relative viability ([2]; first compound 0.02 µM)	relative viability ([2]; first compound 0.06325 µM)	relative viability ([2]; first compound 0.2 µM)	relative viability ([2]; first compound 0.6325 µM)	relative viability ([2]; first compound 2 µM)	relative viability ([3]; first compound 0.02 µM)	relative viability ([3]; first compound 0.06325 µM)	relative viability ([3]; first compound 0.2 µM)	relative viability ([3]; first compound 0.6325 µM)	relative viability ([3]; first compound 2 µM)
NCI-H522				0.737	0.658	0.608	0.633	0.561	0.522						0.97	1.05	1.24	1.19	1.37
NCI-H838	0.934	0.913	1.03	0.369	0.386	0.331	0.561	0.575	0.571	0.971	1.01	1.12	0.916	0.933	0.328	0.31	0.372	0.429	0.382
SW 900				0.552	0.478	0.295	0.495	0.521	0.193							0.187	0.188	0.209	0.169
A549	0.979	0.928	0.428				0.129	0.193	0.166	0.714	0.84	0.898	0.747	0.657					
A-427	1.12	1.14	1.04	0.524	0.469	0.408	0.466	0.37	0.248	1.05	1.09	1.14	1.14	1.05	0.886	0.849	1.06	0.864	0.996
NCI-H1792	0.87	0.85	1.03	0.705	0.684	0.912		0.297	0.392	0.67	0.859	0.77	0.751	0.736	0.337	0.583	0.552	0.585	0.484
LCLC-97TM1	0.992	0.685	1.08	0.635	0.407	0.237	0.407	0.462	0.416	0.206	0.271		0.239	0.206	0.869	0.76	0.689	0.8	0.831
NCI-H1703	1.1	1.08	1.31							0.377	0.306	0.343	0.353	0.385					
LCLC-103H				0.493	0.452	0.454	0.352	0.317	0.318	0.924	0.916	1.03	0.917	0.985	0.932	0.919	1.03	0.925	0.895
PC-3 [JPC-3]	0.452	0.481	0.433	0.763	0.835	0.737	0.475	0.472	0.474	1.04	1.07	1.05	1.07	1.13	0.66	0.709	0.728	0.724	0.776
BEN	0.731	0.66	0.519	0.306	0.301	0.202	0.25	0.263	0.239	1.04	1.06	1.1	1.05	1.06	0.254	0.67	0.211	0.467	0.311
ChaGo-K-1				0.631	0.543	0.488	0.513	0.49	0.453						0.614	0.501	0.54	0.548	0.567
Calu-6	1.07	0.972	0.627							1.05	1.07	1.15	0.943	0.913					
HCC-366	1.06	0.926	0.927	1.04	0.894	0.742	0.637	0.588	0.604	0.32	0.432	0.489	0.435	0.322					
NCI-H1648				0.253	0.217	0.237													
EBC-1	0.233	0.211	0.217							0.785	0.785	0.962	0.835	0.834					
NCI-H1299	0.919	1.02	1							1.05	1.11	1.09	1.08	1.03					
NCI-H2342				0.649	0.612	0.638	0.615	0.619	0.502						0.626	0.875	0.75	0.75	0.688
IA-LM	0.771	0.95	0.787							0.776	0.715	0.937	0.784	0.782					
NCI-H441				0.556	0.58	0.277	0.881	0.894	0.633	0.906	0.715	0.869	1.01	0.654	0.334	0.391	0.347	0.296	0.397

Source: the supplement of paper PMC10307832
